Test results published in the NIST ThermoML archive (doi:10.1016/j.jct.2011.12.001).
Values joined by “and” are separate entries in the source; they are usually repeats but may differ in a detail not shown here. Identical values can stand only once. Numbers after ± are expanded uncertainties.

Legend:
[1] = molar enthalpy of transition or fusion; conditions: drop calorimetry
[2] = molar enthalpy of vaporization or sublimation; conditions: 298.15 K; Liquid; drop calorimetry
[3] = Crystal, Calculated from knudsen effusion weight loss

| molar enthalpy of transition or fusion ([1]; 324.2 K, Liquid) [kcal/mol] | molar enthalpy [2] [kcal/mol] | molar enthalpy of transition or fusion ([1]; 349.4 K, Crystal) [kcal/mol] | SMILES | vapor or sublimation pressure ([3]; 271.17 K) | vapor or sublimation pressure ([3]; 273.17 K) | vapor or sublimation pressure ([3]; 275.13 K) | vapor or sublimation pressure ([3]; 277.16 K) | vapor or sublimation pressure ([3]; 279.06 K) | vapor or sublimation pressure ([3]; 281.16 K) | vapor or sublimation pressure ([3]; 283.17 K) | vapor or sublimation pressure ([3]; 285.14 K) | vapor or sublimation pressure ([3]; 287.14 K) |
| --- | --- | --- | --- | --- | --- | --- | --- | --- | --- | --- | --- | --- |
| 16.52 ± 0.0956 | 15.6 ± 0.669 | – | COc1ccccc1I [1-iodo-2-methoxybenzene] | – | – | – | – | – | – | – | – | – |
| 15.85 ± 0.0478 | 14.9 ± 0.621 | – | COc1cccc(I)c1 [3-iodoanisole] | – | – | – | – | – | – | – | – | – |
| – | 19.7 ± 0.717 | 21.61 ± 0.143 | COc1ccc(I)cc1 [1-iodo-4-methoxybenzene] | 0.000123 ± 2e-05 kPa and 0.00012 ± 2e-05 kPa and 0.000116 ± 2e-05 kPa | 0.000161 ± 2.1e-05 kPa and 0.000156 ± 2.1e-05 kPa and 0.000153 ± 2.1e-05 kPa | 0.000213 ± 2.1e-05 kPa and 0.000211 ± 2.1e-05 kPa and 0.000196 ± 2.1e-05 kPa | 0.000267 ± 2.2e-05 kPa and 0.000258 ± 2.2e-05 kPa and 0.000279 ± 2.2e-05 kPa | 0.00035 ± 2e-05 kPa and 0.000334 ± 2.3e-05 kPa and 0.000332 ± 2.3e-05 kPa | 0.000463 ± 2.6e-05 kPa and 0.000446 ± 2.6e-05 kPa and 0.000429 ± 2.5e-05 kPa | 0.000606 ± 2.9e-05 kPa and 0.000571 ± 2.8e-05 kPa and 0.000555 ± 2.8e-05 kPa | 0.000749 ± 3.3e-05 kPa and 0.000718 ± 3.2e-05 kPa | 0.000979 ± 4e-05 kPa and 0.000924 ± 3.8e-05 kPa and 0.000923 ± 3.8e-05 kPa |
